Test results taken from US20240366770A1, “DEGRADATION OF BRUTON'S TYROSINE KINASE (BTK) BY CONJUGATION OF BTK INHIBITORS WITH E3 LIGASE LIGAND AND METHODS OF USE” (BeiGene Switzerland GmbH, priority 2021, published 2024).

How the values were obtained:
[1] = target: T1, BTK (Homo sapiens, UniProt Q06187); assay: BTK degradation in TMD-8 cells (HTRF assay); type: cell-based; details: 6 h treatment, IC50 (DC50) of BTK degradation
T1 construct: High control=Cell group with added DMSO and without compound, indicating microplate readings without BTK degradation; endogenous in cells; host or cells: TMD-8
Description: (§1) TMD-8 cells were treated with compounds diluted in 0.2% DMSO, dilution was done according to the following protocol: (1) making 500× stock solution in DMSO from 1 mM by 6-fold dilution, total 8 doses were included; (2) making 2× solution in cell culture medium by transferring 0.5 μl 500× stock solution into 125 μl medium; (3) adding 15 μl of 2× solution to cells for incubation of 6 h.
After 6 h treatment, 10 μl 4× lysis buffer was added to each well; the plate was sealed and incubated for 30 min at room temperature on a plate shaker; Once the cells was lysed, 16 μL of cell lysate were transferred to a PE 384-well HTRF detection plate; 4 μL of pre-mixed HTRF antibodies were added to each well; the plate was covered with a plate sealer, and then spinned at 1000 rpm for 1 min, then incubated overnight at room temperature; the results were read on BMG PheraStar with HTRF protocol (337 nm-665 nm-620 nm).
The IC50 (DC50) value of a compound can be obtained by fitting the following equation
(§2) wherein, X and Y are known values, and IC50, Hillslope, Top and Bottom are the parameters obtained by fitting with software. Y is the inhibition percentage (calculated from the equation), X is the concentration of the compound; IC50 is the concentration of the compound when the 50% inhibition is reached. The smaller the IC50 value is, the stronger the inhibitory ability of the compound is. Vice versa, the higher the IC50 value is, the weaker the ability the inhibitory ability of the compound is; Hillslope represents the slope of the fitted curve, generally around 1 *; Bottom represents the minimum value of the curve obtained by data fitting, which is generally 0%±20%; Top represents the maximum value of the curve obtained by data fitting, which is generally 100%±20%. The experimental data were fitted by calculating and analyzing with Dotmatics data analysis software.

[2] = tested on: HEK-293 cells; assay: HEK-293 cytotoxicity detection (CellTiter-Glo); type: cell-based; details: Homo sapiens; HEK-293 cells, 72 h incubation, CellTiter-Glo luminescence, IC50 of cell proliferation inhibition; read-out: HEK293
Description: as §1, with “HEK-293 cells” for “TMD-8 cells”, “from 5” for “from 1”, “by 4-fold” for “by 6-fold”, “0.5 ul” for “0.5 μl”, “adding 50” for “adding 15”, “of 72” for “of 6”
25 μl of the CellTiter-Glo®Reagent [(Promega) -Cat No. G7572] was added to each well in the 96-well plate. The contents were mixed for 2 minutes on an orbital shaker to induce cell lysis. The plate was then allowed to incubate at room temperature for 10 minutes to stabilize luminescent signal. Luminescence was recorded on BMG PheraStar with luminescence protocol.
The IC50 value of a compound can be obtained by fitting the following equation
as §2, with “Wherein,” for “wherein,”

T1 sequence (Q06187 whole entry): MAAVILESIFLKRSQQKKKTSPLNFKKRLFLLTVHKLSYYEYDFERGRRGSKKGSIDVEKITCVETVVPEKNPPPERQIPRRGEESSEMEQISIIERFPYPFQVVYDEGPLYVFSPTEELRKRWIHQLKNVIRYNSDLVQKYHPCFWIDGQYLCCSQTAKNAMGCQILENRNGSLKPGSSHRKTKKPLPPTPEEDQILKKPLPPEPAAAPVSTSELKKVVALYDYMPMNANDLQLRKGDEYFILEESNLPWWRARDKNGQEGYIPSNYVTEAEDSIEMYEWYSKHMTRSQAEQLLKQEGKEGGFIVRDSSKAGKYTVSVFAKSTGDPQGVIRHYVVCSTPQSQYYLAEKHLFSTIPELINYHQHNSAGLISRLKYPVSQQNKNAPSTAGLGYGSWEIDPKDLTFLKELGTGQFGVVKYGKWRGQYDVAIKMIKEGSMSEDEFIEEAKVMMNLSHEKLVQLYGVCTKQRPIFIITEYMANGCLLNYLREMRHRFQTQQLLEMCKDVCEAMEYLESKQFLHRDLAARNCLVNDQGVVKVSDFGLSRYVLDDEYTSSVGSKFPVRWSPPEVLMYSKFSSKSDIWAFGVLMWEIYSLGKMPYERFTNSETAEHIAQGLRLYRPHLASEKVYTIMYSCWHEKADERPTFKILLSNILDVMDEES

| SMILES | DC50 [1] [nM] | IC50 [2] [nM] |
| --- | --- | --- |
| Cc1cc(N2CCC(CN3CCN(c4ccc5c(c4)[nH]c4ncnc(-c6ccc([C@@H](C)NC(=O)c7noc(C(C)(C)C)n7)c(C)c6F)c45)CC3)CC2)ccc1N1CCC(=O)NC1=O [Example 28, (R)-5-(tert-butyl)-N-(1-(4-(7-(4-((1-(4-(2,4-dioxotetrahydropyrimidin-1(2H)-yl)-3-methylphenyl)piperidin-4-yl)methyl)piperazin-1-yl)-9H-pyrimido[4,5-b]indol-4-yl)-3-fluoro-2-methylphenyl)ethyl)-1,2,4-oxadiazole-3-carboxamide] | 0.309 | > 10000 |
| Cc1c([C@@H](C)NC(=O)c2noc(C(C)(C)C)n2)ccc(-c2ncnc3[nH]c4cc(N5CCN(C6CCN(c7ccc(C8CCC(=O)NC8=O)cc7)CC6)CC5)ccc4c23)c1F (stereo partly drawn) [Example 29, 5-(tert-butyl)-N-((1R)-1-(4-(7-(4-(1-(4-(2,6-dioxopiperidin-3-yl)phenyl)piperidin-4-yl)piperazin-1-yl)-9H-pyrimido[4,5-b]indol-4-yl)-3-fluoro-2-methylphenyl)ethyl)-1,2,4-oxadiazole-3-carboxamide] | 3.16 | > 10000 |
| Cc1c([C@@H](C)NC(=O)c2noc(C(C)(C)C)n2)ccc(-c2ncnc3[nH]c4cc(N5CCN(CC6CC(c7ccc(C8CCC(=O)NC8=O)cc7)C6)CC5)ccc4c23)c1F (stereo partly drawn) [Example 30, 5-(tert-butyl)-N-((1R)-1-(4-(7-(4-((3-(4-(2,6-dioxopiperidin-3-yl)phenyl)cyclobutyl)methyl)piperazin-1-yl)-9H-pyrimido[4,5-b]indol-4-yl)-3-fluoro-2-methylphenyl)ethyl)-1,2,4-oxadiazole-3-carboxamide] | 4.55 | > 10000 |

Now from value to compound, other results behind:

| DC50 [1] [nM] | SMILES | IC50 [2] [nM] |
| --- | --- | --- |
| 1.43 | Cc1c([C@@H](C)NC(=O)c2noc(C(C)(C)C)n2)ccc(-c2ncnc3[nH]c4cc(N5CCN(C6CC(c7ccc([C@@H]8CCC(=O)NC8=O)cc7)C6)CC5)ccc4c23)c1F (stereo partly drawn) [Example 31, 5-(tert-butyl)-N—((R)-1-(4-(7-(4-(3-(4-((S)-2,6-dioxopiperidin-3-yl)phenyl)cyclobutyl)piperazin-1-yl)-9H-pyrimido[4,5-b]indol-4-yl)-3-fluoro-2-methylphenyl)ethyl)-1,2,4-oxadiazole-3-carboxamide] | > 10000 |
| 3.67 | Cc1c([C@@H](C)NC(=O)c2noc(C(C)(C)C)n2)ccc(-c2ncnc3[nH]c4cc(N5CCN(C6CC(c7ccc(N8CCC(=O)NC8=O)cc7)C6)CC5)ccc4c23)c1F (stereo partly drawn) [Example 33, (R)-5-(tert-butyl)-N-(1-(4-(7-(4-(3-(4-(2,4-dioxotetrahydropyrimidin-1(2H)-yl)phenyl)cyclobutyl)piperazin-1-yl)-9H-pyrimido[4,5-b]indol-4-yl)-3-fluoro-2-methylphenyl)ethyl)-1,2,4-oxadiazole-3-carboxamide] | > 10000 |
| 1.23 | Cc1c([C@@H](C)NC(=O)c2noc(C(C)(C)C)n2)ccc(-c2ncnc3[nH]c4cc(N5CCN(C6CCN(c7cccc(C8CCC(=O)NC8=O)c7)CC6)CC5)ccc4c23)c1F (stereo partly drawn) [Example 34, 5-(tert-butyl)-N-((1R)-1-(4-(7-(4-(1-(3-(2,6-dioxopiperidin-3-yl)phenyl)piperidin-4-yl)piperazin-1-yl)-9H-pyrimido[4,5-b]indol-4-yl)-3-fluoro-2-methylphenyl)ethyl)-1,2,4-oxadiazole-3-carboxamide] | 1440 |
| 0.15 | Cc1cc(-c2ncnc3[nH]c4cc(N5CCN(CC6CCN(c7ccc(N8CCC(=O)NC8=O)cc7)CC6)CC5)ccc4c23)ccc1[C@@H](C)NC(=O)c1nc(C2(C)CC2)no1 [Example 35, (R)—N-(1-(4-(7-(4-((1-(4-(2,4-dioxotetrahydropyrimidin-1(2H)-yl)phenyl)piperidin-4-yl)methyl)piperazin-1-yl)-9H-pyrimido[4,5-b]indol-4-yl)-2-methylphenyl)ethyl)-3-(1-methylcyclopropyl)-1,2,4-oxadiazole-5-carboxamide] | > 10000 |
